Data reported in US8461078B2 (priority 2009, dated 2013).

Columns and labels:
Phytophthora infestans = type: in vivo, Phytophthora infestans on tomato plant; conditions: 50 ppm hydrazone with 50 μM CuCl2.2H2O; applied 24 h before inoculation; assessed 7 days after inoculation; tomato
[1] = system: Leptosphaeria nodorum (LEPTNO); assay: In vitro fungitoxicity (growth inhibition) against Leptosphaeria nodorum in copper-minus and copper-plus medium; type: cell-based; conditions: 0.05 μg/mL, 72 h at 25° C.; for LEPTNO % Inhn. Plus Copper Observed: copper-plus medium (CuCl2, 10 μM); for inhibition of growth at 0.05 µg/mL: Parastagonospora nodorum, read-out: LEPTNO % Inhn. Minus Copper Observed
Description: In vitro fungitoxicity assays against Leptosphaeria nodorum (LEPTNO) were conducted using the liquid growth medium described by Coursen and Sisler (American Journal of Botany 1960, 47, 541-549) except that copper micronutrient, normally included as CuSO4, was omitted. The medium, termed “copper-minus”, was prepared by dissolving 10 g glucose, 1.5 g K2HPO4, 2 g KH2PO4 and 1 g (NH4)2SO4 in 1 liter of deionized water and treating the solution with 0.5 g Chelex 100 resin (Bio-Rad Analytical grade, 50-100 mesh, sodium form, cat #142-2822) by stirring at room temperature for 1 h. MgSO4.7H2O (0.5 g) was added, and stirring was continued for a further hour. Trace elements (minus CuSO4), and vitamins described by Coursen and Sisler were added from concentrated stock solutions and the entire medium was sterilized by filtration. Medium containing copper was prepared by adding CuCl2.2H2O to the copper-minus medium at 20 μM. Test compounds were dissolved in dimethylsulfoxide (DMSO) then dilutions in copper-minus and copper-plus growth media were prepared as 100 μL aliquots in flat-bottomed 96-well microtiter plates.
LEPTNO was grown on potato dextrose agar in 9 cm diameter petri dishes for 7 days. Sterile deionized water (20 mL) was added to a culture plate and spores suspended by scraping the surface gently with a sterile plastic loop. The resulting suspension was filtered through a double layer of sterile cheesecloth. Filtered spore suspension (5 mL) was centrifuged in a bench centrifuge at 2000 rpm for 2 min. The resulting spore pellet was resuspended in 10 mL sterile deionized water (which had been treated with Chelex 100 resin using 0.5 g resin per liter of water by stirring at room temperature for 1 h), and recentrifuged. The spores were resuspended in copper-minus medium, and the suspension adjusted to 2×10^5 spores per mL. Microtiter plates were inoculated with 100 μL of this spore suspension and the plates incubated at 25° C. for 72 h before assessing fungal growth by measuring light scattering in a NepheloStar plate reader. Growth inhibition was determined by comparing growth in the presence of test compound with growth in control wells lacking test compound.
Results for growth inhibition by test compounds in copper-plus medium (“% Inhn Plus Copper Observed”) were compared with predicted values (“% Inhn Plus Copper Predicted”) that were calculated using the formula set forth by S. R. Colby in Weeds 1967, 15, 20-22 based on results obtained for the same compounds in copper-minus medium (“% Inhn Minus Copper Observed”) and the inhibition attributed to copper chloride alone, as determined by comparing growth in copper-minus and copper-plus media without any test compound across experiments. Results illustrate that hydrazones and copper produce a synergistic fungitoxic effect towards LEPTNO.

Phytophthora capsici = assay: In vitro fungitoxicity (growth inhibition) against Phytophthora capsici in copper-minus AS and copper-plus AS medium; type: cell-based; conditions: CuCl2, 50 uM; no test compound; across experiments
Description: In vitro fungitoxicity assays against Phytophthora capsici were conducted using the asparagine-sucrose (AS) medium described in Canadian Journal of Microbiology 1961, 7, 15-25, except that copper micronutrient, normally included as CuSO4, was omitted. The medium, termed “copper-minus AS”, was prepared by dissolving 2 g asparagine, 0.43 g KH2PO4, 0.3 g K2HPO4, 0.4 mL of a 0.5 mg/mL thiamine-HCl solution and 15 g sucrose in 1 liter of deionized water and treating the solution with 0.5 g Chelex 100 resin (Bio-Rad Analytical grade, 50-100 mesh, sodium form, cat #142-2822) by stirring at room temperature for 1 h. The pH was adjusted to 6.4, then MgSO4.7H2O (100 μg/mL), FeSO4.7H2O (1 μg/mL), CaCl2 (50 μg/mL), ZnSO4.7H2O (1 μg/mL), NaMoO4.2H2O (0.2 μg/mL) and MnCl2.4H2O (0.2 μg/mL) were added and the entire medium was sterilized by filtration. […]
Phytophthora capsici was grown on petri plates, 9 cm in diameter, containing 15 mL V-8 agar, pH 7.0, containing 200 mL V-8 juice, 4 g CaCO3, and 20 g agar per liter. […] Microtiter plates were inoculated with 100 μL of spore suspension and incubated at 25° C. for 48 h before assessing fungal growth by measuring light scattering in a NepheloStar plate reader. Growth inhibition was determined by comparing growth in the presence of test compound with growth in control wells lacking test compound. […]

[2] = system: Staphylococcus aureus, Escherichia coli, Aspergillus niger and A. flavus; conditions: literature report (Proc. Natl. Acad. Sci. India 1991); cited from earlier work

Structure (SMILES) | TLB % Control (Phytophthora infestans) [%] | LEPTNO % Inhn. Plus Copper Observed [1] [%] | inhibition of growth at 0.05 µg/mL ([1]; copper-minus medium) [%] | also measured
O=C(N/N=C/c1cc(Cl)cc(Cl)c1O)c1cc(Cl)ccc1Br [Compound 36] | 70.9 | 92.5 | 0 | 
O.O.[Cl][Cu][Cl] [CuCl2, CuCl2.2H2O, reference compound] |  |  |  | % Inhn attributed to copper chloride alone (Phytophthora capsici) (Phytophthora capsici): 4.5 ± 7.9%
O=C(NN=Cc1ccccc1O)c1ccccc1O [o-hydroxybenzaldehyde-N-salicyloylhydrazone] |  |  |  | Antimicrobial activity [2]: Antimicrobial activity has been reported
O=C(N/N=C/c1cc(Cl)ccc1O)c1ccc(C(F)(F)F)cc1 [Compound 33] |  |  |  | LEPTNO % Inhn. Minus Copper Observed ([1]; copper-minus medium): 20.7%
O=C(N/N=C/c1cc(Br)cc(Br)c1O)c1cc(Cl)ccc1Br [Compound 37] | 68.4 | 97.9 | 34.5 | 
